Results: patent EP0255256A2, “Antibiotics produced by actinomadura parvosata” (SMITHKLINE BECKMAN CORPORATION, priority 1986, dated 1988)
≈ marks a conversion by molar mass, not a printed value. Read-outs that look alike come from different tables or passages of the source.

Legend:
Staph. haemolyticus 651 [1] = experiment: MIC, standard microtiter assay; assay type: cell-based
Method: (§1) The in vitro minimal inhibitory concentration (MIC) of the AAJ-271 complex and its factors, and vancomycin were determined for a number of microorganisms using the standard microtite'r assay procedures. The results are shown in the following tables, each of which represents a different production run of the complex.
(§2) The in vitro minimal inhibitory concentration (MIC) and the in vitro minimal bactericidal concentration (MBC) of the AAJ-271 aglycones, pseudo-aglycone and vancomycin were determined for a number of microorganisms using the standard microtiter assay procedures.

Staph. epidermidis 2479 [2] = experiment: MIC, standard microtiter assay; assay type: cell-based; conditions: Staphylococcus epidermidis, 2479, read-out: MIC in μg/ml, Staph. epidermidis 2479
Method: as §1, §2

Staph. epidermidis 2588 = experiment: MIC, standard microtiter assay; assay type: cell-based; conditions: Staphylococcus epidermidis, 2588, read-out: MIC in μg/ml, Staph. epidermidis 2588
Method: as §1, §2

Staph. epidermidis 2265 [3] = experiment: MIC, standard microtiter assay; assay type: cell-based; conditions: Staphylococcus epidermidis, 2265, read-out: MIC in μg/ml, Staph. epidermidis 2265
Method: as §1, §2

Staph. epidermidis 2256 = experiment: MIC, standard microtiter assay; assay type: cell-based; conditions: Staphylococcus epidermidis, 2256, read-out: MIC in μg/ml, Staph. epidermidis 2256
Method: as §1, §2

Staph. aureus 910 = experiment: MIC, standard microtiter assay; assay type: cell-based
Method: as §1, §2

Staph. aureus 675 [4] = experiment: MIC, standard microtiter assay; assay type: cell-based; conditions: Staphylococcus aureus, 675, read-out: MIC in μg/ml, Staph. aureus 675
Method: as §1, §2

[5] = system: Staph. saprophyticus 2657; experiment: MIC, standard microtiter assay; assay type: cell-based; conditions: Staphylococcus saprophyticus, 2657, read-out: MIC in μg/ml, Staph. saprophyticus 2657
Method: as §1, §2

Staph. aureus HH127 [6] = experiment: MIC, standard microtiter assay; assay type: cell-based; conditions: Staphylococcus aureus, HH127, read-out: MIC in μg/ml, Staph. aureus HH127
Method: as §1, §2

Strep. faecalis 657 [7] = experiment: MIC, standard microtiter assay; assay type: cell-based; conditions: Enterococcus faecalis, 657, read-out: MIC in μg/ml, Strep. faecalis 657
Method: as §1, §2

[8] = system: Strep. pyogenes (Group A); experiment: MIC, standard microtiter assay; assay type: cell-based
Method: as §1, §2

Staph. aureus 209P = experiment: MIC, standard microtiter assay; assay type: cell-based; conditions: Staphylococcus aureus, 209P, read-out: MIC in μg/ml, Staph. aureus 209P
Method: as §1, §2

Strep. faecalis 34358 [9] = experiment: MIC, standard microtiter assay; assay type: cell-based; conditions: Enterococcus faecalis, 34358, read-out: MIC in μg/ml, Strep. faecalis 34358
Method: as §1, §2

Staph. aureus 2620 = experiment: MIC, standard microtiter assay; assay type: cell-based; conditions: Staphylococcus aureus, 2620, read-out: MIC in μg/ml, Staph. aureus 2620
Method: as §1, §2

Staph. haemolyticus 651 [10] = experiment: MBC, standard assay procedures; assay type: cell-based
Method: (§3) The in vitro minimal bactericidal concentration (MBC) of the AAJ-271 C, C2 and C3 factors and vancomycin were determined for a number of microorganisms using standard assay procedures.
as §2

Staph. epidermidis 2479 [11] = experiment: MBC, standard assay procedures; assay type: cell-based
Method: as §3, §2

Staph. epidermidis 2265 [12] = experiment: MBC, standard assay procedures; assay type: cell-based
Method: as §3, §2

Staph. aureus 675 [13] = experiment: MBC, standard assay procedures; assay type: cell-based
Method: as §3, §2

Staph. aureus HH127 [14] = experiment: MBC, standard assay procedures; assay type: cell-based; conditions: Staphylococcus aureus
Method: as §3, §2

Strep. faecalis 657 [15] = experiment: MBC, standard assay procedures; assay type: cell-based
Method: as §3, §2

Strep. faecalis 34358 [16] = experiment: MBC, standard assay procedures; assay type: cell-based
Method: as §3, §2

Strep. faecalis 34358 [17] = experiment: Mouse protection assay; assay type: in vivo

In the case of CN[C@H](CC(C)C)C(=O)N[C@H]1C(=O)N[C@@H](CC(N)=O)C(=O)N[C@H]2C(=O)N[C@H]3C(=O)N[C@H](C(=O)N[C@H](C(=O)O)c4cc(O)cc(O)c4-c4cc3ccc4O)[C@H](O)c3ccc(c(Cl)c3)Oc3cc2cc(c3O[C@@H]2O[C@H](CO)[C@@H](O)[C@H](O)[C@H]2O[C@H]2C[C@](C)(N)[C@H](O)[C@H](C)O2)Oc2ccc(cc2Cl)[C@H]1O [Vancomycin, vancomycin], the “MIC” value (Staph. haemolyticus 651 [1]; Staph. haemolyticus 651, Table II) was 3.1 µg/mL (≈ 2.14 µM), the “MIC” value (Staph. haemolyticus 651 [1]; Staph. haemolyticus 651, Table IX) was 3.1 µg/mL (≈ 2.14 µM) and the “MIC” value (Staph. haemolyticus 651 [1]; Staph. haemolyticus 651, Table VIII) was 3.1 µg/mL (≈ 2.14 µM). The MIC (Staph. haemolyticus 651 [1]; Staphylococcus haemolyticus, 651, read-out: MIC in μg/ml) was 3.1 µg/mL (≈ 2.14 µM), the MIC (Staph. epidermidis 2479 [2]; Table I) was 1.6 µg/mL (≈ 1.1 µM) and the MIC (Staph. epidermidis 2479 [2]; Table II) was 6.3 µg/mL (≈ 4.35 µM). The MIC (Staph. epidermidis 2479 [2]; Table IX) was 6.3 µg/mL (≈ 4.35 µM), the MIC (Staph. epidermidis 2479 [2]; Table VIII) was 3.1 µg/mL (≈ 2.14 µM) and the MIC (Staph. epidermidis 2588; Table I) was 1.6 µg/mL (≈ 1.1 µM). The MIC (Staph. epidermidis 2588; Table VIII) was 6.3 µg/mL (≈ 4.35 µM), the MIC (Staph. epidermidis 2265 [3]; Table I) was 1.6 µg/mL (≈ 1.1 µM) and the MIC (Staph. epidermidis 2265 [3]; Table II) was 6.3 µg/mL (≈ 4.35 µM). It also gave an MIC (Staph. epidermidis 2265 [3]; Table IX) of 6.3 µg/mL (≈ 4.35 µM), an MIC (Staph. epidermidis 2265 [3]; Table VIII) of 3.1 µg/mL (≈ 2.14 µM) and an MIC (Staph. epidermidis 2256; Table I) of 1.6 µg/mL (≈ 1.1 µM). For the same molecule, the MIC (Staph. epidermidis 2256; Table VIII) was 3.1 µg/mL (≈ 2.14 µM), the “MIC” value (Staph. aureus 910; Staph. aureus 910, Table VIII) was 1.6 µg/mL (≈ 1.1 µM) and the MIC (Staph. aureus 910; Staphylococcus aureus, 910, read-out: MIC in μg/ml) was 1.6 µg/mL (≈ 1.1 µM). For the same molecule, the MIC (Staph. aureus 675 [4]; Table I) was 1.6 µg/mL (≈ 1.1 µM), the MIC (Staph. aureus 675 [4]; Table II) was 3.1 µg/mL (≈ 2.14 µM) and the MIC (Staph. aureus 675 [4]; Table IX) was 3.1 µg/mL (≈ 2.14 µM). For the same molecule, the MIC (Staph. aureus 675 [4]; Table VIII) was 3.1 µg/mL (≈ 2.14 µM), the MIC ([5]; Table I) was 1.6 µg/mL (≈ 1.1 µM) and the MIC ([5]; Table VIII) was 3.1 µg/mL (≈ 2.14 µM). The MIC (Staph. aureus HH127 [6]; Table I) was 1.6 µg/mL (≈ 1.1 µM), the MIC (Staph. aureus HH127 [6]; Table II) was 3.1 µg/mL (≈ 2.14 µM) and the MIC (Staph. aureus HH127 [6]; Table IX) was 3.1 µg/mL (≈ 2.14 µM). It also gave an MIC (Staph. aureus HH127 [6]; Table VIII) of 1.6 µg/mL (≈ 1.1 µM), an MIC (Strep. faecalis 657 [7]; Table I) of 1.6 µg/mL (≈ 1.1 µM) and an MIC (Strep. faecalis 657 [7]; Table II) of 3.1 µg/mL (≈ 2.14 µM). The MIC (Strep. faecalis 657 [7]; Table IX) was 3.1 µg/mL (≈ 2.14 µM), the MIC (Strep. faecalis 657 [7]; Table VIII) was 3.1 µg/mL (≈ 2.14 µM) and the “MIC” value ([8]; Strep. pyogenes (Group A), Table VIII) was 0.8 µg/mL (≈ 0.552 µM). It also gave an MIC ([8]; Streptococcus pyogenes, read-out: MIC in μg/ml) of 0.8 µg/mL (≈ 0.552 µM), an MIC (Staph. aureus 209P; Table I) of 1.6 µg/mL (≈ 1.1 µM) and an MIC (Staph. aureus 209P; Table VIII) of 0.8 µg/mL (≈ 0.552 µM). For the same molecule, the MIC (Strep. faecalis 34358 [9]; Table I) was 1.6 µg/mL (≈ 1.1 µM), the MIC (Strep. faecalis 34358 [9]; Table II) was 6.3 µg/mL (≈ 4.35 µM) and the MIC (Strep. faecalis 34358 [9]; Table IX) was 6.3 µg/mL (≈ 4.35 µM). It also gave an MIC (Strep. faecalis 34358 [9]; Table VIII) of 3.1 µg/mL (≈ 2.14 µM), an MIC (Staph. aureus 2620; Table I) of 1.6 µg/mL (≈ 1.1 µM) and an MIC (Staph. aureus 2620; Table II) of 3.1 µg/mL (≈ 2.14 µM). The MIC (Staph. aureus 2620; Table IX) was 3.1 µg/mL (≈ 2.14 µM), the MIC (Staph. aureus 2620; Table VIII) was 1.6 µg/mL (≈ 1.1 µM) and the MBC (Staph. haemolyticus 651 [10]; Staphylococcus haemolyticus, 651, read-out: MBC in μg/ml, Staph. haemolyticus 651, Table IX) was 12.5 µg/mL (≈ 8.63 µM). The MBC (Staph. haemolyticus 651 [10]; Staphylococcus haemolyticus, 651, read-out: MBC in μg/ml, Staph. haemolyticus 651, Table VIII) was 3.1 µg/mL (≈ 2.14 µM), the MBC (Staph. haemolyticus 651 [10]; Staphylococcus haemolyticus, IIIB, read-out: MBC in μg/ml, Staph. haemolyticus 651, Table IIIB) was 12.5 µg/mL (≈ 8.63 µM) and the “MBC” value (Staph. epidermidis 2479 [11]; Staph. epidermidis 2479, Table IX) was 6.3 µg/mL (≈ 4.35 µM). It also gave an MBC (Staph. epidermidis 2479 [11]; Staphylococcus epidermidis, 2479, read-out: MBC in μg/ml) of 6.3 µg/mL (≈ 4.35 µM), an MBC (Staph. epidermidis 2479 [11]; Staphylococcus epidermidis, IIIB, read-out: MBC in μg/ml) of 6.3 µg/mL (≈ 4.35 µM) and an MBC (Staph. epidermidis 2265 [12]; Staphylococcus epidermidis, 2265, read-out: MBC in μg/ml, Staph. epidermidis 2265, Table IX) of 6.3 µg/mL (≈ 4.35 µM). It also gave an MBC (Staph. epidermidis 2265 [12]; Staphylococcus epidermidis, 2265, read-out: MBC in μg/ml, Staph. epidermidis 2265, Table VIII) of 3.1 µg/mL (≈ 2.14 µM), an MBC (Staph. epidermidis 2265 [12]; Staphylococcus epidermidis, IIIB, read-out: MBC in μg/ml, Staph. epidermidis 2265, Table IIIB) of 6.3 µg/mL (≈ 4.35 µM) and an MBC (Staph. aureus 675 [13]; Staphylococcus aureus, 675, read-out: MBC in μg/ml, Staph. aureus 675, Table IX) of 6.3 µg/mL (≈ 4.35 µM). For the same molecule, the MBC (Staph. aureus 675 [13]; Staphylococcus aureus, 675, read-out: MBC in μg/ml, Staph. aureus 675, Table VIII) was 3.1 µg/mL (≈ 2.14 µM), the MBC (Staph. aureus 675 [13]; Staphylococcus aureus, IIIB, read-out: MBC in μg/ml, Staph. aureus 675, Table IIIB) was 6.3 µg/mL (≈ 4.35 µM) and the MBC (Staph. aureus HH127 [14]; HH127, read-out: MBC in μg/ml, Staph. aureus HH127, Table IX) was 3.1 µg/mL (≈ 2.14 µM). For the same molecule, the MBC (Staph. aureus HH127 [14]; HH127, read-out: MBC in μg/ml, Staph. aureus HH127, Table VIII) was 1.6 µg/mL (≈ 1.1 µM), the MBC (Staph. aureus HH127 [14]; IIIB, read-out: MBC in μg/ml, Staph. aureus HH127, Table IIIB) was 3.1 µg/mL (≈ 2.14 µM) and the MBC (Strep. faecalis 657 [15]; Enterococcus faecalis, 657, read-out: MBC in μg/ml, Strep. faecalis 657, Table IX) was 6.3 µg/mL (≈ 4.35 µM). The MBC (Strep. faecalis 657 [15]; Enterococcus faecalis, 657, read-out: MBC in μg/ml, Strep. faecalis 657, Table VIII) was 3.1 µg/mL (≈ 2.14 µM), the MBC (Strep. faecalis 657 [15]; Enterococcus faecalis, IIIB, read-out: MBC in μg/ml, Strep. faecalis 657, Table IIIB) was 6.3 µg/mL (≈ 4.35 µM) and the MBC (Strep. faecalis 34358 [16]; Enterococcus faecalis, 34358, read-out: MBC in μg/ml, Strep. faecalis 34358, Table IX) was 12.5 µg/mL (≈ 8.63 µM). For the same molecule, the MBC (Strep. faecalis 34358 [16]; Enterococcus faecalis, 34358, read-out: MBC in μg/ml, Strep. faecalis 34358, Table VIII) was 50 µg/mL (≈ 34.5 µM), the MBC (Strep. faecalis 34358 [16]; Enterococcus faecalis, read-out: MBC in μg/ml, Strep. faecalis 34358, Table) was 12.5 µg/mL (≈ 8.63 µM) and the ED50 (Strep. faecalis 34358 [17]; Enterococcus faecalis, 34358, 1 h) was 1.25 mg/kg. The ED50 (Strep. faecalis 34358 [17]; Enterococcus faecalis, 34358, iv, 1 h) was 1.3 mg/kg.
